Values quoted from earlier work in patent publication US20070020305A1, “Attractant for monitoring or controlling female stored product moths” (Board of Regents for Oklahoma State University, priority 2004, published 2007).

Test system: stored product moths
Settings: for Attraction of females and males: Indianmeal moth and Mediterranean flour moth, Toth et al. 2002

Compound | Attraction of females and males | Attractiveness to stored product moths, in words (background statement)
CC(=O)O [acetic acid] | would attract females and males | 
CC(C)CCO [isoamyl alcohol] | would attract females and males | 
CCCCC/C=C\C=C\C(=O)OCC [ethyl-decdienoate] |  | not attractive
